Values quoted from earlier work in publication PMC6166790 (Nature, 2018).

System: CLR/RAMP2 or CLR/RAMP3

Question: Which receptor response selectivity does the source give for adrenomedullin [AM] here?
Answer: The receptor response selectivity was “selective AM responses”.
